From patent US8802715B2, “Crystal forms of saxagliptin and processes for preparing same” (AstraZeneca AB, priority 2007, dated 2014)

Legend:
[1] = Solid form stability of crystals stored at ambient conditions; assay type: physicochemical; details: product likely form H2-1
Method: 100 mg Saxagliptin mono HCl salt form H2-1 (dihydrate) (prepared employing a procedure similar to that described in Example 5) were added to 2 ml of dry ethanol (dried over molecular sieves). The resulting mixture was heated at 45° C. until all form H^2-1 compound was dissolved, at which time heating was discontinued. Crystallization was initiated when the temperature was cooled to 25° C.±2° C. (close to room temperature). Crystals of saxagliptin HCl salt Pattern P-5 were recovered, which crystals were maintained as a slurry in a sealed container at 25° C.±2° C.

[2] = Weight gain with relative humidity (hygroscopicity); assay type: physicochemical

Row | SMILES | conversion of crystal form on storage [1] | hygroscopicity ([2]; from weight gain in the range 25-75% RH at 25° C.) | weight gain ([2]; range 25-75% RH at 25° C.)
1 | Cl.N#C[C@@H]1C[C@@H]2C[C@@H]2N1C(=O)[C@@H](N)C12CC3CC(CC(O)(C3)C1)C2 [saxagliptin HCl salt Pattern P-5] | underwent significant conversion | – | –
2 | N#C[C@@H]1C[C@@H]2C[C@@H]2N1C(=O)[C@@H](N)C12CC3CC(CC(O)(C3)C1)C2.O [free base monohydrate (form H−1)] | – | non-hygroscopic | 0.1%
